# Reference: patent publication US4476129A, “4-[2-[Bis(halophenyl)methoxy]-ethyl]-α-(substituted phenyl)-1-piperazinealkanol derivatives, processes for their preparation and pharmaceutical preparations containing them” (priority 1982, dated 1984)
# “And” between values parts separate entries of the source, which are not always exact repeats. Equal entries are not always repeated. Structures can show the parent of a compound that is named as a salt. Where two headings read alike, the source gives them in different places.
# What was measured:
# [1] = test system: dopamine uptake by striatal synaptosomes (corpus striatum of the rat); test: Inhibition of re-uptake of dopamine by striatal synaptosomes; format: biochemical; settings: radioactive labelled dopamine
# Description: A. Inhibition of re-uptake of dopamine by striatal synaptosomes.
# The re-uptake process is the most important physiological mechanism causing inactivation of neurotransmitters like dopamine, which are released into the synaptic cleft by a nervous impulse. Inhibition of the dopamine uptake will lead to increased concentration of dopamine in the synaptic cleft and potentiation of the dopamine effect on the post-synaptic receptor. This inhibition was examined in vitro by incubation of synaptosomes of the corpus striatum of the rat with radioactive labelled dopamine, as described by P. van der Zee and W. Hespe, Neuropharmacol. 17, 483-490 (1978). Measurements were made of the concentration of the test compound giving 50% inhibition of the uptake (IC50).
# dopamine receptors [2] = test: Affinity to dopamine receptors (receptor binding); set-up: species or system rat; settings: membrane fraction of corpus striatum of the rat, radioactive labelled dopamine as ligand
# Description: (§1) B. Affinity to dopamine receptors.
# (§2) The affinity of the compounds to the dopamine receptors in a membrane fraction of the corpus striatum of the rat was determined as described by D. R. Burt et al., Mol. Pharmacol., 12, 800-812 (1976), dopamine and the dopamine antagonist haloperiodol being used as radioactive labelled ligands. The IC50-value is the concentration of the piperazine derivatives necessary to inhibit the specific binding of dopamine, or haloperiodol for 50%.
# dopamine receptors [3] = biological target: T1, dopamine receptors (Rattus norvegicus, UniProt P61169); test: Affinity to dopamine receptors (receptor binding)
# T1 construct: membrane fraction of the corpus striatum of the rat; from tissue; host or cells: rat corpus striatum, membrane fraction
# T1 sequence (P61169 whole entry): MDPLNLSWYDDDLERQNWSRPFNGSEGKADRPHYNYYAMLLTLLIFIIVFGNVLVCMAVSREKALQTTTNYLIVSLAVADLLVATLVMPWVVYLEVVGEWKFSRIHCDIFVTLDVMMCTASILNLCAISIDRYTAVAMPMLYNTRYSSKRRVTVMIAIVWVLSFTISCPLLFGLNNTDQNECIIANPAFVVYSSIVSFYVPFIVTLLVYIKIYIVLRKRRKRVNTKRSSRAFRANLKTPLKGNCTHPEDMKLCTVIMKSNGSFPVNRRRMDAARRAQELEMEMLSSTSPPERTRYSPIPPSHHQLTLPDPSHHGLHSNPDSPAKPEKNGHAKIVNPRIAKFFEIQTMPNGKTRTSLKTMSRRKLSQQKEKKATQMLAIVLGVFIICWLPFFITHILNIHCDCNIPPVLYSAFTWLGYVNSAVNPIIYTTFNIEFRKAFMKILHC
# Description: as §1, §2
# [4] = test system: stereotyped behaviour in female Wistar rats; test: Stereotypy in the rat (stereotyped behaviour); format: in vivo; settings: 50% of the maximal effect, observed 15-300 minutes after administration; for ED50: Rattus norvegicus, po; for ED50, stereotyped behaviour: p.o.
# Description: C. Stereotypy in the rat.
# The stereotyped behavior appearing in the rat after administration of centrally active dopaminergic substances can be regarded as a relevant test for antiparkinson agents.
# The tests were carried out with female Wistar rats under conditions with a low level of stimuli. The behaviour of the rats was observed on 15, 30, 60, 120, 180, 240 and 300 minutes after administration of the substance, the following parameters being considered:
# The total impression of the intensity of stereotypy was noted according to the following rating:
# For each dose a group of four rats was used, so that the total score for the seven observations was maximally 7×4×3=84.
# [5] = membrane fraction of corpus striatum of the rat, radioactive labelled haloperidol (dopamine antagonist) as ligand, read-out: IC50, receptor binding haloperidol
smiles,measurement,setting,value
"OC(CCCN1CCN(CCOC(c2ccc(F)cc2)c2ccc(F)cc2)CC1)c1ccccc1 (stereo not drawn) [Compound 8, 4-[2-[bis(4-fluorophenyl)methoxy]ethyl]-α-phenyl-1-piperazinebutanol]",IC50,[1],3.4 nM
same,IC50,dopamine receptors [2],4 nM
same,IC50,dopamine receptors [3]; [5],445 nM
same,ED50,[4],6.2 mg/kg
same,"ED50, stereotyped behaviour",[4],4.6 mg/kg p.o.
"O=C(Nc1ccccc1)OC(CCN1CCN(CCOC(c2ccc(F)cc2)c2ccc(F)cc2)CC1)c1ccccc1 (stereo not drawn) [Compound 19, Phenylcarbaminic[3-[4-[2-[bis(4-fluorophenyl)methoxy]ethyl]-1-piperazinyl]-1-phenylpropyl]ester (Z)-2-butenedioate (1:2)]",IC50,[1],3.3 nM
same,IC50,dopamine receptors [2],43.4 nM
same,IC50,dopamine receptors [3]; [5],302 nM
"COC(CCN1CCN(CCOC(c2ccc(F)cc2)c2ccc(F)cc2)CC1)c1ccccc1.Cl.Cl (stereo not drawn) [Compound 16, 1-[2-[bis-(4-fluorophenyl)methoxy]ethyl]-4-(3-phenyl-3-methoxypropyl]piperazine dihydrochloride]",IC50,[1],13.2 nM
same,IC50,dopamine receptors [2],50 nM
same,IC50,dopamine receptors [3],523 nM
same,ED50,[4],4.6 mg/kg
"CCNC(=O)OC(CCN1CCN(CCOC(c2ccc(F)cc2)c2ccc(F)cc2)CC1)c1ccccc1 (stereo not drawn) [Compound 18, Ethylcarbaminic[3-[4-[2-[bis(fluorophenyl)methoxy]ethyl]-1-piperazinyl]-1-phenylpropyl]ester (Z)-2-butenedioate (1:2)]",IC50,[1],2.4 nM
same,IC50,dopamine receptors [2],16.9 nM
same,IC50,dopamine receptors [3]; [5],216 nM
same,ED50,[4],11.2 mg/kg
"OC(CCN1CCN(CCOC(c2ccc(F)cc2)c2ccc(F)cc2)CC1)c1ccccc1 (stereo not drawn) [Compound 2, 4-[2-[bis(4-fluorophenyl)methoxy]ethyl]-α-phenyl-1-piperazinepropanol]",IC50,[1],1.3 nM
same,IC50,dopamine receptors [2],13.3 nM
same,IC50,dopamine receptors [3],307 nM
"OC(CCN1CCN(CCOC(c2ccc(F)cc2)c2ccc(F)cc2)CC1)c1ccc(F)cc1 (stereo not drawn) [Compound 3, 4-[2-[bis(4-fluorophenyl)methoxy]ethyl]-α-(4-fluorophenyl)-1-piperazinepropanol]",IC50,[1],8.2 nM
same,IC50,dopamine receptors [2],8.7 nM
same,IC50,dopamine receptors [3]; [5],610 nM
same,ED50,[4],1.7 mg/kg
same,"ED50, stereotyped behaviour",[4],2.3 mg/kg p.o. and 1.3 mg/kg p.o.
"O=C(CCN1CCN(CCOC(c2ccc(F)cc2)c2ccc(F)cc2)CC1)c1ccc(F)cc1 [Compound 12, 3-[4-[2-[bis(4-fluorophenyl)methoxy]ethyl]-1-piperazinyl]-1-(4-fluorophenyl)-1-propanone]",IC50,[1],35.4 nM
same,IC50,dopamine receptors [2],180 nM
same,IC50,dopamine receptors [3]; [5],467 nM
same,ED50,[4],5.5 mg/kg
"OC(Cc1ccccc1)CN1CCN(CCOC(c2ccc(F)cc2)c2ccc(F)cc2)CC1 (stereo not drawn) [Compound 4, 4-[2-[bis(4-fluorophenyl)methoxy]ethyl]-α-(phenylmethyl)-1-piperazineethanol]",IC50,[1],5.4 nM
same,IC50,dopamine receptors [2],30.5 nM
same,IC50,dopamine receptors [3]; [5],546 nM
same,ED50,[4],~6 mg/kg
"CC(O)(CCN1CCN(CCOC(c2ccc(F)cc2)c2ccc(F)cc2)CC1)c1ccc(F)cc1 (stereo not drawn) [Compound 6, 4-[2-[bis(4-fluorophenyl)methoxy]ethyl]-α-(4-fluorophenyl)-α-methyl-1-piperazinepropanol]",IC50,[1],6.7 nM
same,IC50,dopamine receptors [2],32.3 nM
same,IC50,dopamine receptors [3]; [5],277 nM
same,ED50,[4],11.4 mg/kg
"CCC(O)(CCN1CCN(CCOC(c2ccc(F)cc2)c2ccc(F)cc2)CC1)c1ccccc1 (stereo not drawn) [Compound 7, 4-[2-[bis(4-fluorophenyl)methoxy]ethyl]-α-ethyl-α-phenyl-1-piperazinepropanol]",IC50,[1],22.1 nM
same,IC50,dopamine receptors [2],63 nM
same,IC50,dopamine receptors [3]; [5],361 nM
same,ED50,[4],26 mg/kg
"CC(O)(CCN1CCN(CCOC(c2ccc(F)cc2)c2ccc(F)cc2)CC1)c1ccccc1 (stereo not drawn) [Compound 5, 4-[2-[bis(4-fluorophenyl)methoxy]ethyl]-α-phenyl-α-methyl-1-piperazinepropanol]",IC50,[1],2.4 nM
same,IC50,dopamine receptors [2],22.3 nM
same,IC50,dopamine receptors [3]; [5],283 nM
same,ED50,[4],14 mg/kg
"O=C(CCN1CCN(CCOC(c2ccc(F)cc2)c2ccc(F)cc2)CC1)c1ccccc1 [Compound 11, 3-[4-[2-[bis(4-fluorophenyl)methoxy]ethyl]-1-piperazinyl]-1-phenyl-1-propanone]",IC50,[1],39.7 nM
same,IC50,dopamine receptors [2],80.3 nM
same,IC50,dopamine receptors [3],268 nM
same,ED50,[4],< 5.5 mg/kg
"Cl.Cl.O=C(CCCN1CCN(CCOC(c2ccc(F)cc2)c2ccc(F)cc2)CC1)c1ccccc1 [Compound 14, 4-[4-[2-[bis(4-fluorophenyl)methoxy]-ethyl]-1-piperazinyl]-1-phenyl-1-butanone dihydrochloride]",IC50,[1],2.5 nM
same,IC50,dopamine receptors [2],15.5 nM
same,IC50,dopamine receptors [3],23.3 nM
same,ED50,[4],18 mg/kg
"Cl.Cl.O=C(Cc1ccccc1)CN1CCN(CCOC(c2ccc(F)cc2)c2ccc(F)cc2)CC1 [Compound 13, 1-[4-[2-[bis(4-fluorophenyl)methoxy]ethyl]-1-piperazinyl]-3-phenyl-2-propanone dihydrochloride]",IC50,[1],27 nM
same,IC50,dopamine receptors [2],76 nM
same,IC50,dopamine receptors [3],545 nM
same,ED50,[4],9.1 mg/kg
"CC(C)C[C@H]1C(=O)N2CCC[C@H]2[C@]2(O)O[C@](NC(=O)[C@@H]3C=C4c5cccc6[nH]c(Br)c(c56)C[C@H]4N(C)C3)(C(C)C)C(=O)N12 [bromocriptine, reference compound]",ED50,[4],25.3 mg/kg
"O=C(CCCN1CCN(CCOC(c2ccc(F)cc2)c2ccc(F)cc2)CC1)c1ccc(F)cc1 [Compound 15, 4-[4-[2bis(4-fluorophenyl)methoxy]ethyl]-1-piperazinyl]-1-(4-fluorophenyl)-1-butanone dihydrochloride]",IC50,[1],5.2 nM
same,IC50,dopamine receptors [2],291 nM
same,IC50,dopamine receptors [3],19 nM
same,ED50,[4],> 46 mg/kg
"OC(CN1CCN(CCOC(c2ccc(F)cc2)c2ccc(F)cc2)CC1)c1ccccc1 (stereo not drawn) [Compound 1, 4-[2-[bis(4-fluorophenyl)methoxy]ethyl]-α-phenyl-1-piperazineethanol]",IC50,[1],26.5 nM
same,IC50,dopamine receptors [2],46.7 nM
same,IC50,dopamine receptors [3]; [5],780 nM
same,ED50,[4],17.5 mg/kg
"Cl.Cl.OC(CCCN1CCN(CCOC(c2ccc(F)cc2)c2ccc(F)cc2)CC1)c1ccc(F)cc1 (stereo not drawn) [Compound 9, 4-[2-[bis(4-fluorophenyl)methoxy]ethyl]-α-(4-fluorophenyl)-1-piperazinebutanol dihydrochloride]",IC50,[1],2.8 nM
same,IC50,dopamine receptors [2],18.1 nM
same,IC50,dopamine receptors [3],492 nM
same,ED50,[4],< 5 mg/kg
"O=C(CN1CCN(CCOC(c2ccc(F)cc2)c2ccc(F)cc2)CC1)c1ccccc1 [Compound 10, 2-[4-[2-[bis(4-fluorophenyl)methoxy]ethyl]-1-piperazinyl]-1-phenylethanonedihydrochloride]",IC50,[1],28.3 nM
same,IC50,dopamine receptors [2],55 nM
same,IC50,dopamine receptors [3]; [5],524 nM
"c1cnc(N2CCN(Cc3ccc4c(c3)OCO4)CC2)nc1 [piribedil, reference compound]",ED50,[4],99.5 mg/kg
"CNC(=O)OC(CCN1CCN(CCOC(c2ccc(F)cc2)c2ccc(F)cc2)CC1)c1ccccc1 (stereo not drawn) [Compound 17, methylcarbaminic 3-[4-[2-[bis(4-fluorophenyl)methoxy]ethyl]-1-piperazinyl]-1-phenylpropyl]ester (Z)-2-butendioate (1:2)]",IC50,[1],4.9 nM
same,IC50,dopamine receptors [2],27.2 nM
same,IC50,dopamine receptors [3],97.3 nM
same,ED50,[4],4.3 mg/kg
same,"ED50, stereotyped behaviour",[4],7.2 mg/kg p.o.
